Assay [1] deals with MOLP-8 human multiple myeloma cell line. The experiment in a line: MOLP8 Caspase-Glo 3/7 luminescent assay. Type of assay: cell-based. Conditions: 2 hours incubation, averaged values over all runs on all batches. An excerpt:
(§1) MCL-1 is a regulator of apoptosis and is highly over-expressed in tumor cells that escape cell death. The assay evaluates the cellular potency of small-molecule compounds targeting regulators of the apoptosis pathway, primarily MCL-1, Bfl-1, Bcl-2, and other proteins of the Bcl-2 family. Protein-protein inhibitors disrupting the interaction of anti-apoptotic regulators with BH3-domain proteins initiate apoptosis.
The Caspase-Glo® 3/7 Assay is a luminescent assay that measures caspase-3 and -7 activities in purified enzyme preparations or cultures of adherent or suspension cells. The assay provides a proluminescent caspase-3/7 substrate, which contains the tetrapeptide sequence DEVD. This substrate is cleaved to release aminoluciferin, a substrate of luciferase used in the production of light. Addition of the single Caspase-Glo® 3/7 Reagent in an “add-mix-measure” format results in cell lysis, followed by caspase cleavage of the substrate and generation of a “glow-type” luminescent signal.
This assay uses the MOLP-8 human multiple myeloma cell line, which is sensitive to MCL-1 inhibition.
Cell cultures were maintained between 0.2 and 2.0×10^6 cells/mL. The cells were harvested by collection in 50 mL conical tubes. The cells were then pelleted at 500 g for 5 mins before removing supernatant and resuspension in fresh pre-warmed culture medium. The cells were counted and diluted as needed.
The assay reagent was prepared by transferring the buffer solution to the substrate vial and mixing. The solution may be stored for up to 1 week at 4° C. with negligible loss of signal.
Compounds were delivered in assay-ready plates (Proxiplate) and stored at −20° C.
Assays always include 1 reference compound plate containing reference compounds. The plates were spotted with 40 nL of compounds (0.5% DMSO final in cells; serial dilution; 30 μM highest conc. ⅓ dilution, 10 doses, duplicates). The compounds were used at room temperature and 4 μL of pre-warmed media was added to all wells except column 2 and 23. The negative control was prepared by adding 1% DMSO in media. The positive control was prepared by adding the appropriate positive control compound in final concentration of 60 μM in media. The plate was prepared by adding 4 μL negative control to column 23, 4 μL positive control to column 2 and 4 μL cell suspension to all wells in the plate. The plate with cells was then incubated at 37° C. for 2 hours. The assay signal reagent is the Caspase-Glo solution described above, and 8 μL was added to all wells. The plates were then sealed and measured after 30 minutes.
The activity of a test compound was calculated as percent change in apoptosis induction as follows:
LC=median of the Low Control values • =Central Reference in Screener • =DMSO • =0% ΠC=Median of the High Control values • =Scale Reference in Screener • =30 pM of positive control • =100% apoptosis induction
% Effect (AC50)=100−(sample−LC)/(HC−LC)*100
% Control=(sample/HC)*100
% Control min=(sample−LC)/(HC−LC)*100

The test system of assay [2] is MOLP8 cells. Kind of assay: MOLP8 CellEvent Caspase-3/7 Green apoptosis activation assay (IncuCyte live-cell kinetic readout). Conditions: Homo sapiens, each independent run listed. Type of assay: cell-based. As for the experimental part: as §1
Activation of the apoptotic pathway was measured using the CellEvent™ Caspase-3/7 Green ReadyProbes™ Reagent (Thermo Fisher C10423, C10723). This assay produces a green fluorescent stain in cells that enter the apoptosis pathway. CellEvent® Caspase-3/7 Green reagent is a four amino acid peptide (DEVD) conjugated to a nucleic acid-binding dye that is non-fluorescent when not bound to DNA. The CellEvent® Caspase-3/7 Green reagent is intrinsically non-fluorescent, as the DEVD peptide inhibits binding of the dye to DNA. Upon activation of caspase-3/7 in apoptotic cells, the DEVD peptide is cleaved and the free dye can bind DNA, generating a bright green fluorescence. The activation of Caspase-3 and Caspase-7 is downstream of inhibition of MCL-1 or other apoptosis inhibiting proteins in cell lines that are dependent on them.
The live-cell readout on the IncuCyte permits tracking over time of the Caspase activation. […] The IncuCyte readout also allows one to normalize for cell number, as the suspension cells are hard to distribute evenly.
Signals were measured every 2 h for a duration of 22 h. The ratio of the Caspase mask to the Confluence mask, per image, as raw data, was calculated and the kinetic trace for every well was exported to Genedata Screener for analysis.
In Genedata Screener values for 6 h, 12 h, and 22 h from the kinetic traces were extracted. The values were normalized against negative controls (untreated cells). A standard dose-response analysis was performed on the normalized data.
The following data was reported at each of the following three aforementioned time points: (a) The dose-response curve, (b) The qAC50 and qAC50 Mode, and (c) Max Activity.
Cells were maintained in culture medium containing 10% Heat Inactivated (HI) FBS, 2 mM L-Glutamine and 50 µg/mL Gentamycin phenol red free RPMI-1640. Cells were split at 0.4 million/mL twice a week.
On Day 1, plates containing individual wells with test compounds at 10 mM concentration, 150 nL per well. The final concentrations range from […] compound (and no compound control) and compounds were thawed at room temperature for 1 hour. 25 μl of prewarmed medium was added into each well by multidrop (column 1, 3-22, 24), followed by addition of DMSO control (0.6% DMSO) in column 2. The plate was sealed using Breathe-Easy® sealing membrane and shaken for 30 min at room temperature to dissolve the test compound(s) in medium. The plate was then kept in the incubator for 1 hour at 37° C., 5% CO2.
MOLP8 cells in medium at […] (20000/50 μl final in assay) were prepared with CellEvent™ Caspase-3/7 Green Detection Reagent at 4 μM (2 μM final in assay). Once prepared, the cells were added to the test compound plate in an amount of 20000 and the plate was immediately placed in the IncuCyte and imaging started using following settings: 10× objective, 2 s exposure time in green channel, interval of 2 h, acquisition stopped after 22 h.
For analysis in IncuCyte, a Basic Analysis protocol was defined to calculate the “confluence” and “caspase” areas from the “Phase” and “green” images, respectively, as follows: (a) Confluence: Segmentation Adjustment 1, Hole Fill 0, Adjust Size −2, No filters (b) Caspase: Top-Hat segmentation, Radius 10, Threshold 0.3 GCU, Edge Split On with sensitivity 0, Hole Fill 0, Adjust Size 1, and filter on a minimum Area of 20 μm^2. The analyzer is trained on a sufficient number of positive and negative control wells, as well as compound treated wells, verifying that the “confluence” layer detects both live and dead (condensed) cells. […]

Like-named read-outs stand apart in the source and are kept apart here.

Molecule `Cc1c(C(=O)O)n2c3ccc(Cl)c(c13)-c1c(nn(C)c1C)CN(C)Cc1cc(n(C)n1)CSc1cc(c3ccccc3c1)OCCC2` (single isomer, unassigned) [Compound 5] yielded an AC50 in assay [1] (Homo sapiens, MOLP-8, 2 h) of 14500 nM.

For `Cc1c(C(=O)O)n2c3ccc(Cl)c(c13)-c1c(nn(C)c1C)CSCc1cc([nH]n1)CSc1cc(c3ccccc3c1)OCCC2` (single isomer, unassigned) [Compound 7], the AC50 in assay [1] (Homo sapiens, MOLP-8, 2 h) was 70 nM.

With `Cc1c(C(=O)O)n2c3ccc(Cl)c(c13)-c1c(nn(C)c1C)CSCc1cc([nH]n1)CSc1cc(c3ccccc3c1)OCCC2` (single isomer, unassigned) [Compound 8], the AC50 in assay [1] amounted to 90 nM.

In turn, `CCn1nc2cc1CSc1cc(c3ccccc3c1)OCCCn1c(C(=O)O)c(C)c3c(c(Cl)ccc31)-c1c(nn(C)c1C)CSC2` (single isomer, unassigned) [Compound 10] had an AC50 in assay [1] (Homo sapiens, MOLP-8, 2 h) of 120 nM.

`CCn1nc2cc1CSCc1nn(C)c(C)c1-c1c(Cl)ccc3c1c(C)c(C(=O)O)n3CCCOc1cc(cc3ccccc13)SC2` (single isomer, unassigned) [Compound 11] had an AC50 in assay [1] (Homo sapiens, MOLP-8, 2 h) greater than 30000 nM.

`Cc1c(C(=O)O)n2c3ccc(Cl)c(c13)-c1c(nn(C)c1C)CSCc1cc(n(C(C)C)n1)CSc1cc(c3ccccc3c1)OCCC2` (single isomer, unassigned) [Compound 12] came in with an AC50 in assay [1] (Homo sapiens, MOLP-8, 2 h) of 510 nM.

In assay [1] (Homo sapiens, MOLP-8, 2 h), `Cc1c(C(=O)O)n2c3ccc(Cl)c(c13)-c1c(nn(C)c1C)CSCc1cc(nn1C(C)C)CSc1cc(c3ccccc3c1)OCCC2` (single isomer, unassigned) [Compound 13] registered an AC50 of 1250 nM.

Molecule `Cc1[nH]nc2c1-c1c(Cl)ccc3c1c(C)c(C(=O)O)n3CCCOc1cc(cc3ccccc13)SCc1cc(nn1C)CN(C)C2` (single isomer, unassigned) [Compound 14] registered an AC50 in assay [1] of 920 nM.

As for `Cc1[nH]nc2c1-c1c(Cl)ccc3c1c(C)c(C(=O)O)n3CCCOc1cc(cc3ccccc13)SCc1cc(nn1C)CN(C)C2` (single isomer, unassigned) [Compound 15], in assay [1], the AC50 was determined as 15300 nM.

For the molecule `Cc1[nH]nc2c1-c1c(Cl)ccc3c1c(C)c(C(=O)O)n3CCCOc1cc(cc3ccccc13)SCc1cc(nn1C)CSC2` (single isomer, unassigned) [Compound 16], the AC50 in assay [1] was 540 nM.

`Cc1[nH]nc2c1-c1c(Cl)ccc3c1c(C)c(C(=O)O)n3CCCOc1cc(cc3ccccc13)SCc1cc(nn1C)CSC2` (single isomer, unassigned) [Compound 17] registered an AC50 in assay [1] of 21300 nM.

Take `Cc1c(C(=O)O)n2c3ccc(Cl)c(c13)-c1c(nn(C)c1C)CNCc1cc(n(C)n1)CSc1cc(c3ccccc3c1)OCCC2` [Compound 4, 15-Chloro-13,21,25,61-tetramethyl-11H,21H,61H-10-oxa-8-thia-4-aza-1(4,1)-indola-2(4,3),6(3,5)-dipyrazola-9(3,1)-naphthalenacyclotridecaphane-12-Carboxylic acid]: the AC50 in assay [2] (MOLP-8, 6 h, 6 h, read-out: MOLP8 Caspase 3/7 AC50 at 6 h) worked out at 1620 nM; in assay [2] (MOLP-8, 12 h, 12 h, read-out: MOLP8 Caspase 3/7 AC50 at 12 h) it was 1590 nM; in assay [2] (MOLP-8, 22 h, 22 h, read-out: MOLP8 Caspase 3/7 AC50 at 22 h), 1380 nM; in assay [1] (Homo sapiens, MOLP-8, 2 h) it was 920 nM.

The molecule `Cc1c(C(=O)O)n2c3ccc(Cl)c(c13)-c1c(nn(C)c1C)CN(C(C)C)Cc1cc(n(C)n1)CSc1cc(c3ccccc3c1)OCCC2` [Compound 9] showed an AC50 in assay [1] (Homo sapiens, MOLP-8, 2 h) of 160 nM.

Values taken from patent US20220306653A1, “MACROCYCLIC INHIBITORS OF MCL-1” (Janssen Pharmaceutica NV, priority 2019, published 2022).
